In ChEMBL document CHEMBL4303101, “Identification of inhibitors of SARS-CoV-2 in-vitro cellular toxicity in human (Caco-2) cells using a large scale drug repurposing collection” (2020):
pIC50: −log10 of the molar value.

Key:
[1] = tested on: SARS-CoV-2; test: microbe, parasite or virus in culture; conditions: Severe acute respiratory syndrome coronavirus 2, Caco-2, 48 h
[2] = in vitro; conditions: human, Caco-2 cells
[3] = tested on: SARS-CoV-2; conditions: Homo sapiens; Caco-2; 10 uM
[4] = in vitro; conditions: human
[5] = tested on: SARS-CoV-2; conditions: caco-2
[6] = tested on: Caco-2; conditions: human, caco-2, 48 h

Row | Compound | pIC50 [1] | CC50 at 48 h [2] | inhibition [3] | selectivity ratio ([4]; Caco-2 cells) | also measured
1 | COc1cc2ncc(-c3ccccc3)nc2cc1OC | 6.70 | 1.36 µM |  |  | 
2 | CETRIMONIUM BROMIDE |  |  | 55.1% |  | 
3 | VITAMIN B12 |  |  | -8.31% |  | 
4 | C/C=C/C[C@@H](C)[C@@H](O)[C@H]1C(=O)N[C@@H](CC)C(=O)N(C)[C@H](C)C(=O)N(CC)[C@@H](C(C)C)C(=O)N[C@@H](C(C)C)C(=O)N(C)[C@@H](CC(C)C)C(=O)N[C@@H](C)C(=O)N[C@H](C)C(=O)N(C)[C@@H](CC(C)C)C(=O)N(C)[C@@H](CC(C)C)C(=O)N(C)[C@@H](C(C)C)C(=O)N1C [ALISPORIVIR] | 5.51 | > 20 µM |  | > 6 | 
5 | C=C(c1ccccc1OCc1cccc(Cl)c1)n1ccnc1 [CROCONAZOLE] | 4.72 | 33 µM |  | 2 | 
6 | ESCIN |  |  | -9.26% |  | 
7 | CCCCCCCCCCCCOCCOCCOCCOCCOCCOCCOCCOCCOCCO | 6.66 | 10.3 µM |  |  | 
8 | AURANOFIN |  |  | 12.8% |  | 
9 | TOCOFERSOLAN |  |  | 95.2% |  | 
10 | CC(C)(C)c1ccc(/C=C/C(=O)Nc2ccc3c(c2)OCCO3)cc1 | 4.82 | 14.2 µM |  | 1 | 
11 | THIMEROSAL |  |  |  |  | pIC50 [5]: 5.77; CC50 [6]: 13.5 µM
12 | SODIUM ORTHOVANADATE |  |  | 1.6% |  | 
13 | COC(=O)C[C@@](O)(CCC(C)(C)O)C(=O)O[C@@H]1C(OC)=C[C@]23CCCN2CCc2cc4c(cc2[C@@H]13)OCO4 | 4.72 | 0.07 µM |  |  | 
14 | C/C(=N\NC(=S)N1CCC1)c1ccccn1 | > 7.70 | < 0.02 µM |  | 1 | 
15 | PHENYLMERCURIC ACETATE |  |  | 9.11% |  | 
16 | CCCC[C@@]1(C2CCCC2)Cc2cc(OCCCC(=O)O)c(Cl)c(Cl)c2C1=O | 4.89 | 24.6 µM |  | 2 | 
17 | Nc1nc2c(ncn2[C@@H]2O[C@H](CO)[C@@H](O)[C@H]2O)c(=S)[nH]1 [THIOGUANOSINE] | 6.11 | 0.63 µM |  | 1 | 
18 | CCC(CC)COC(=O)[C@H](C)N[P@](=O)(OC[C@H]1O[C@@](C#N)(c2ccc3c(N)ncnn23)[C@H](O)[C@@H]1O)Oc1ccccc1 | 6.12 | 2580 µM |  |  | selectivity ratio ([4]; caco-2): 3400

Row | Compound | pIC50 [1] | CC50 at 48 h [2] | inhibition [3] | selectivity ratio ([4]; Caco-2 cells) | also measured
19 | ACRIFLAVINE HYDROCHLORIDE |  |  | 69.4% |  | 
20 | CCS(=O)(=O)N(Cc1cccnc1)c1cccc(-c2ccc(C#N)cc2)c1 | 4.77 | 13.4 µM |  | 1 | 
21 | FC(F)(F)Oc1ccc2nc(-c3ccc(OCCOCCOc4ccc(-c5nc6ccc(OC(F)(F)F)cc6[nH]5)nc4)cn3)[nH]c2c1 | 6.72 | 6.58 µM |  | 35 | 
22 | Nc1nccc(-c2c(-c3ccc(F)cc3)ncn2C2CCCCC2)n1 | 4.72 | 8.24 µM |  |  | 
23 | CC1=C(CCC(=O)O)c2cc3nc(cc4[nH]c(cc5[nH]c(cc1n2)c(C)c5C(C)O)c(C)c4C(C)O)C(C)=C3CCC(=O)O (stereo unspecified) [HAEMAPORPHYRIN] |  | 160 µM |  |  | 
24 | CCCCCCCCCCCCCCCCCC[S+](CCC)c1ccccc1C(=O)OCC (stereo unspecified) | 6.11 | 0.89 µM |  | 1 | 
25 | GADOTERIDOL |  |  | 2.66% |  | 
26 | AUROTHIOGLUCOSE |  |  | 2.42% |  | 
27 | CCOC(=O)c1ncc2[nH]c3ccc(OCc4ccccc4)cc3c2c1COC | 5.87 | 0.91 µM |  | 1 | 
28 | Cn1cc(-c2ccc3c(c2)CCN3C(=O)Cc2cccc(C(F)(F)F)c2)c2c(N)ncnc21 | 6.60 | 70.4 µM |  | > 100 | 
29 | NYSTATIN |  |  | -4.11% |  | 
30 | Cc1cc(Nc2cc(N3CCN(C)CC3)nc(Sc3ccc(NC(=O)C4CC4)cc3)n2)n[nH]1 |  |  | -0.85% |  | 
31 | CC(=O)OC[C@]12CCC(C)=C[C@H]1O[C@@H]1[C@H](O)[C@@H](OC(C)=O)[C@@]2(C)[C@@]12CO2 |  |  | 35% |  | 
32 | N=C(Nc1ccc(I)cc1)NC1C2CC3CC(C2)CC1C3 (stereo unspecified) | 5.22 | 11.5 µM |  | 2 | 
33 | Cc1nn(C)c2nc(NNC(=O)Nc3cc(Cl)nc(Cl)c3)cc(C(C)C)c12 | 5.22 | 16.4 µM |  | 3 | 
34 | COLISTIMETHATE SODIUM |  |  | -7.44% |  | 
35 | Cc1cccc2c1CC[C@H](CN1CCC(c3c(Cl)cccc3Cl)CC1)C[C@@H]2O | 6.11 | 3.67 µM |  | 5 | 
36 | CYANOCOBALAMIN |  |  | 40.4% |  | 
